# Test system: cool season plant species
# Assay: B2 Post-emergence efficacy Test 2, cool season plant species
# Assay type: in vivo
# Conditions: 15 days after application, 0=no damage, 100=total kill
# In short: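 Plants at 12 days post-sowing were sprayed with active ingredient formulated in IF50 plus 0.2% v/v Genapol XO80, then grown in a glasshouse (24/18 °C or 20/16 °C day/night, 16 h light, 65% humidity). Damage scored 15 days after application on 0–100 scale (100 = total kill).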
compound,measurement,setting,value
Cc1nn(C)c(=O)c(-c2c(F)ccc(Cl)c2CCc2ccc(F)cc2)c1O [Compound 1.048],Herbicidal activity (0-100 scale) ALOMY,15 g/Ha,20
same,Herbicidal activity (0-100 scale) ALOMY,30 g/Ha,30
same,Herbicidal activity (0-100 scale) ALOMY,60 g/Ha,70
same,Herbicidal activity (0-100 scale) ALOMY,125 g/Ha,80
same,Herbicidal activity (0-100 scale) ALOMY,250 g/Ha,80
same,Herbicidal activity (0-100 scale) ALOMY,500 g/Ha,90
same,Herbicidal activity (0-100 scale) AVEFA,15 g/Ha,10
same,Herbicidal activity (0-100 scale) AVEFA,30 g/Ha,30
same,Herbicidal activity (0-100 scale) AVEFA,60 g/Ha,60
same,Herbicidal activity (0-100 scale) AVEFA,125 g/Ha,80
same,Herbicidal activity (0-100 scale) AVEFA,250 g/Ha,90
same,Herbicidal activity (0-100 scale) AVEFA,500 g/Ha,90
same,Herbicidal activity (0-100 scale) BEAVA,15 g/Ha,70
same,Herbicidal activity (0-100 scale) BEAVA,30 g/Ha,80
same,Herbicidal activity (0-100 scale) BEAVA,60 g/Ha,80
same,Herbicidal activity (0-100 scale) BEAVA,125 g/Ha,90
same,Herbicidal activity (0-100 scale) BEAVA,250 g/Ha,90
same,Herbicidal activity (0-100 scale) BEAVA,500 g/Ha,90
same,Herbicidal activity (0-100 scale) BROTE,15 g/Ha,0
same,Herbicidal activity (0-100 scale) BROTE,30 g/Ha,10
same,Herbicidal activity (0-100 scale) BROTE,60 g/Ha,20
same,Herbicidal activity (0-100 scale) BROTE,125 g/Ha,50
same,Herbicidal activity (0-100 scale) BROTE,250 g/Ha,60
same,Herbicidal activity (0-100 scale) BROTE,500 g/Ha,70
same,Herbicidal activity (0-100 scale) BRSNN,15 g/Ha,90
same,Herbicidal activity (0-100 scale) BRSNN,30 g/Ha,90
same,Herbicidal activity (0-100 scale) BRSNN,60 g/Ha,90
same,Herbicidal activity (0-100 scale) BRSNN,125 g/Ha,90
same,Herbicidal activity (0-100 scale) BRSNN,250 g/Ha,90
same,Herbicidal activity (0-100 scale) BRSNN,500 g/Ha,90
same,Herbicidal activity (0-100 scale) CHEAL,125 g/Ha,70
same,Herbicidal activity (0-100 scale) CHEAL,250 g/Ha,90
same,Herbicidal activity (0-100 scale) CHEAL,500 g/Ha,100
same,Herbicidal activity (0-100 scale) GALAP,15 g/Ha,20
same,Herbicidal activity (0-100 scale) GALAP,30 g/Ha,30
same,Herbicidal activity (0-100 scale) GALAP,60 g/Ha,50
same,Herbicidal activity (0-100 scale) GALAP,125 g/Ha,60
same,Herbicidal activity (0-100 scale) GALAP,250 g/Ha,60
same,Herbicidal activity (0-100 scale) GALAP,500 g/Ha,80
same,Herbicidal activity (0-100 scale) HORVW,15 g/Ha,10
same,Herbicidal activity (0-100 scale) HORVW,30 g/Ha,10
same,Herbicidal activity (0-100 scale) HORVW,60 g/Ha,10
same,Herbicidal activity (0-100 scale) HORVW,125 g/Ha,40
same,Herbicidal activity (0-100 scale) HORVW,250 g/Ha,40
same,Herbicidal activity (0-100 scale) HORVW,500 g/Ha,80
same,Herbicidal activity (0-100 scale) KCHSC,15 g/Ha,0
same,Herbicidal activity (0-100 scale) KCHSC,30 g/Ha,0
same,Herbicidal activity (0-100 scale) KCHSC,60 g/Ha,10
same,Herbicidal activity (0-100 scale) KCHSC,125 g/Ha,20
same,Herbicidal activity (0-100 scale) KCHSC,250 g/Ha,50
same,Herbicidal activity (0-100 scale) KCHSC,500 g/Ha,80
same,Herbicidal activity (0-100 scale) LOLPE,15 g/Ha,20
same,Herbicidal activity (0-100 scale) LOLPE,30 g/Ha,40
same,Herbicidal activity (0-100 scale) LOLPE,60 g/Ha,90
same,Herbicidal activity (0-100 scale) LOLPE,125 g/Ha,90
same,Herbicidal activity (0-100 scale) LOLPE,250 g/Ha,90
same,Herbicidal activity (0-100 scale) LOLPE,500 g/Ha,90
same,Herbicidal activity (0-100 scale) POAAN,15 g/Ha,30
same,Herbicidal activity (0-100 scale) POAAN,30 g/Ha,30
same,Herbicidal activity (0-100 scale) POAAN,60 g/Ha,80
same,Herbicidal activity (0-100 scale) POAAN,125 g/Ha,80
same,Herbicidal activity (0-100 scale) POAAN,250 g/Ha,90
same,Herbicidal activity (0-100 scale) POAAN,500 g/Ha,90
same,Herbicidal activity (0-100 scale) POLCO,15 g/Ha,60
same,Herbicidal activity (0-100 scale) POLCO,30 g/Ha,70
same,Herbicidal activity (0-100 scale) POLCO,60 g/Ha,90
same,Herbicidal activity (0-100 scale) POLCO,125 g/Ha,90
same,Herbicidal activity (0-100 scale) POLCO,250 g/Ha,90
same,Herbicidal activity (0-100 scale) POLCO,500 g/Ha,90
same,Herbicidal activity (0-100 scale) SINAR,15 g/Ha,40
same,Herbicidal activity (0-100 scale) SINAR,30 g/Ha,80
same,Herbicidal activity (0-100 scale) SINAR,60 g/Ha,80
same,Herbicidal activity (0-100 scale) SINAR,125 g/Ha,90
same,Herbicidal activity (0-100 scale) SINAR,250 g/Ha,90
same,Herbicidal activity (0-100 scale) SINAR,500 g/Ha,90
same,Herbicidal activity (0-100 scale) STEME,15 g/Ha,90
same,Herbicidal activity (0-100 scale) STEME,30 g/Ha,90
same,Herbicidal activity (0-100 scale) STEME,60 g/Ha,90
same,Herbicidal activity (0-100 scale) STEME,125 g/Ha,100
same,Herbicidal activity (0-100 scale) STEME,250 g/Ha,100
same,Herbicidal activity (0-100 scale) STEME,500 g/Ha,100
same,Herbicidal activity (0-100 scale) TRZAW,15 g/Ha,0
same,Herbicidal activity (0-100 scale) TRZAW,30 g/Ha,10
same,Herbicidal activity (0-100 scale) TRZAW,60 g/Ha,20
same,Herbicidal activity (0-100 scale) TRZAW,125 g/Ha,20
same,Herbicidal activity (0-100 scale) TRZAW,250 g/Ha,50
same,Herbicidal activity (0-100 scale) TRZAW,500 g/Ha,80
same,Herbicidal activity (0-100 scale) VERPE,15 g/Ha,60
same,Herbicidal activity (0-100 scale) VERPE,30 g/Ha,80
same,Herbicidal activity (0-100 scale) VERPE,60 g/Ha,90
same,Herbicidal activity (0-100 scale) VERPE,125 g/Ha,80
same,Herbicidal activity (0-100 scale) VERPE,250 g/Ha,100
same,Herbicidal activity (0-100 scale) VERPE,500 g/Ha,100
